Biological target: T1, hFXR (Homo sapiens, UniProt Q96RI1)
T1 construct: expressed in transfected cells; host or cells: CV-1 cells
T1 sequence (Q96RI1 1-486): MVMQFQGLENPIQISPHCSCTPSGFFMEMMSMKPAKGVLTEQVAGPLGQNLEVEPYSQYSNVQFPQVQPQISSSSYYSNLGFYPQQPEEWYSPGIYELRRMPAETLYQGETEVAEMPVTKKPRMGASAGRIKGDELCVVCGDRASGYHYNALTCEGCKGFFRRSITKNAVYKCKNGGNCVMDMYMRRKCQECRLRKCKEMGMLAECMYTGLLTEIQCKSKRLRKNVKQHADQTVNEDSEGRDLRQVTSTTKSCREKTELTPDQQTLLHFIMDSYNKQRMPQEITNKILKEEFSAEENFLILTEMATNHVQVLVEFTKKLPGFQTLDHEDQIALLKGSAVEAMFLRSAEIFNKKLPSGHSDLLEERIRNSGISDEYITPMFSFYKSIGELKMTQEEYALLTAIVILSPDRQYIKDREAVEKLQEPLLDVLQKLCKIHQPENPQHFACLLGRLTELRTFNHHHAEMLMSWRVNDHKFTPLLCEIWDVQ
T1 sequence (P19793 1-462 partner): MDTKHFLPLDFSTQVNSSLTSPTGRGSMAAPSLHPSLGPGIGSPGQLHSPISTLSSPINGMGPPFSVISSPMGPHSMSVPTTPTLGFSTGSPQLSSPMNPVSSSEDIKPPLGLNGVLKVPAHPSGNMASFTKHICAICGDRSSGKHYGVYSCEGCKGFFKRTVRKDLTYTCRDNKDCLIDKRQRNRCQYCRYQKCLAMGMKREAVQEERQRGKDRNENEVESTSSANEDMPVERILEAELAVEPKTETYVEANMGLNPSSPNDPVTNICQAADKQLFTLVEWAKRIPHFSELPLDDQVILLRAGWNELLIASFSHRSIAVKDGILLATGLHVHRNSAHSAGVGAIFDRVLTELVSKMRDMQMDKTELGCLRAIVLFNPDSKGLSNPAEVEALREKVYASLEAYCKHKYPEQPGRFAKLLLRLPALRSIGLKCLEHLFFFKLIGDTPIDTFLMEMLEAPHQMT
Test: In Vitro FXR Assay (TK): TK-ECRE-luc reporter in transfected CV-1 cells
Type: cell-based
Details: 18 hrs, luminescence, maximum efficacy of <25% of the Fexarmine control classified as '+'
Method in brief: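 Luciferase read-out after 18 h compound exposure of CV-1 cells carrying transfected hFXR plus hRXR expression plasmids, TK-ECRE-luc reporter and pCMX-YFP. Cells cultured in charcoal-stripped FBS before transfection; compounds serially diluted in DMSO.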

Row | Compound | EC50 [µM]
1 | COc1ccc(C23CCC(CN(c4cccc(-c5cnc(C6CC6)s5)c4)C(=O)[C@H]4CC[C@H](C(=O)O)CC4)(CC2)CC3)cc1C [Compound 17.05, trans-4-((3-(2-Cyclopropylthiazol-5-yl)phenyl)((4-(4-methoxy-3-methylphenyl)bicyclo[2.2.2]octan-1-yl)methyl)carbamoyl) cyclohexanecarboxylic acid] | ≤ 0.25
2 | CN(C)c1ccc(C23CCC(CN(c4cccc(-c5cnc(C6CC6)s5)c4)C(=O)[C@H]4CC[C@H](C(=O)O)CC4)(CC2)CC3)cn1 [Compound 17.06, trans-4-((3-(2-Cyclopropylthiazol-5-yl)phenyl)((4-(6-(dimethylamino)pyridin-3-yl)bicyclo[2.2.2]octan-1-yl)methyl)carbamoyl) cyclohexanecarboxylic acid] | ≤ 0.25
3 | COc1ccc(C23CCC(CN(c4cc(-c5cnc(C6CC6)s5)ccn4)C(=O)[C@H]4CC[C@H](C(=O)O)CC4)(CC2)CC3)cc1C [Compound 17.07, trans-4-((4-(2-Cyclopropylthiazol-5-yl)pyridin-2-yl)((4-(4-methoxy-3-methylphenyl)bicyclo[2.2.2]octan-1-yl)methyl)carbamoyl) cyclohexanecarboxylic acid] | ≤ 0.25
4 | COc1ccc([C@H]2CC[C@H](CN(c3cc(-c4cnc(C5CC5)s4)ccn3)C(=O)[C@H]3CC[C@H](C(=O)O)CC3)CC2)cc1C [Compound 17.09, trans-4-((4-(2-Cyclopropylthiazol-5-yl)pyridin-2-yl)((trans-4-(4-methoxy-3-methylphenyl)cyclohexyl)methyl)carbamoyl)cyclohexanecarboxylic acid] | ≤ 0.25
5 | COc1ccc([C@H]2CC[C@H](CN(c3cc(-c4cnc(C5CC5)s4)ccn3)C(=O)[C@H]3CC[C@H](C(=O)O)CC3)CC2)nc1C [Compound 17.10, trans-4-((4-(2-Cyclopropylthiazol-5-yl)pyridin-2-yl)((trans-4-(5-methoxy-6-methylpyridin-2-yl)cyclohexyl)methyl)carbamoyl) cyclohexanecarboxylic acid] | 0.25 to 1
6 | COc1ccc([C@H]2CC[C@H](CN(c3cccc(-c4cnc(C5CC5)s4)c3)C(=O)[C@H]3CC[C@H](C(=O)O)CC3)CC2)nc1C#N [Compound 17.12, trans-4-(((trans-4-(6-Cyano-5-methoxypyridin-2-yl)cyclohexyl)methyl)(3-(2-cyclopropylthiazol-5-yl)phenyl)carbamoyl) cyclohexanecarboxylic acid] | ≤ 0.25
7 | COc1ccc(C23CCC(CN(c4cccc(-c5cnn(C6CC6)c5)c4)C(=O)[C@H]4CC[C@H](C(=O)O)CC4)(CC2)CC3)cc1C [Compound 17.17, trans-4-((3-(1-Cyclopropyl-1H-pyrazol-4-yl)phenyl)((4-(4-methoxy-3-methylphenyl)bicyclo[2.2.2]octan-1-yl)methyl)carbamoyl) cyclohexanecarboxylic acid] | ≤ 0.25
8 | COc1ccc(C23CCC(CN(c4cc(-c5cnn(C6CC6)c5)ccn4)C(=O)[C@H]4CC[C@H](C(=O)O)CC4)(CC2)CC3)cc1C [Compound 17.19, trans-4-((4-(1-Cyclopropyl-1H-pyrazol-4-yl)pyridin-2-yl)((4-(4-methoxy-3-methylphenyl)bicyclo[2.2.2]octan-1-yl)methyl)carbamoyl) cyclohexanecarboxylic acid] | ≤ 0.25
9 | COc1ccc([C@H]2CC[C@H](CN(c3cc(-c4cnn(C5CC5)c4)ccn3)C(=O)[C@H]3CC[C@H](CC(=O)O)CC3)CC2)nc1C [Compound 17.23, 2-(trans-4-((4-(1-Cyclopropyl-1H-pyrazol-4-yl)pyridin-2-yl)((trans-4-(5-methoxy-6-methylpyridin-2-yl)cyclohexyl)methyl)carbamoyl)cyclohexyl)acetic acid] | 0.25 to 1

Further lines, results first:

Row | EC50 [µM] | Compound
10 | ≤ 0.25 | Cn1nc(F)c2cc([C@H]3CC[C@H](CN(c4cccc(-c5cnc(C6CC6)s5)c4)C(=O)[C@H]4CC[C@H](C(=O)O)CC4)CC3)ccc21 [Compound 17.04, trans-4-((3-(2-Cyclopropylthiazol-5-yl)phenyl)((trans-4-(3-fluoro-1-methyl-1H-indazol-5-yl)cyclohexyl)methyl)carbamoyl) cyclohexanecarboxylic acid]
11 | ≤ 0.25 | COc1ccc([C@H]2CC[C@H](CN(c3cccc(-c4cnc(C5CC5)s4)c3)C(=O)[C@H]3CC[C@H](C(=O)O)CC3)CC2)nc1C [Compound 17.08, trans-4-((3-(2-Cyclopropylthiazol-5-yl)phenyl)((trans-4-(5-methoxy-6-methylpyridin-2-yl)cyclohexyl)methyl)carbamoyl) cyclohexanecarboxylic acid]
12 | ≤ 0.25 | COc1ccc([C@H]2CC[C@H](CN(c3cccc(-c4cnc(C5CC5)s4)c3)C(=O)[C@H]3CC[C@H](C(=O)O)CC3)CC2)cc1C#N [Compound 17.11, trans-4-(((trans-4-(3-Cyano-4-methoxyphenyl)cyclohexyl)methyl)(3-(2-4-cyclopropylthiazol-5-yl)phenyl)carbamoyl)cyclohexanecarboxylic acid]
13 | ≤ 0.25 | COc1ccc([C@H]2CC[C@H](CN(c3cccc(-c4cnn(C5CC5)c4)c3)C(=O)[C@H]3CC[C@H](C(=O)O)CC3)CC2)cc1C [Compound 17.13, trans-4-((3-(1-Cyclopropyl-1H-pyrazol-4-yl)phenyl)((trans-4-(4-methoxy-3-methylphenyl)cyclohexyl)methyl)carbamoyl)cyclohexanecarboxylic acid]
14 | ≤ 0.25 | CN(C)c1ccc([C@H]2CC[C@H](CN(c3cccc(-c4cnn(C5CC5)c4)c3)C(=O)[C@H]3CC[C@H](C(=O)O)CC3)CC2)cn1 [Compound 17.14, trans-4-((3-(1-Cyclopropyl-1H-pyrazol-4-yl)phenyl)((trans-4-(6-(dimethylamino)pyridin-3-yl)cyclohexyl)methyl)carbamoyl) cyclohexanecarboxylic acid]
15 | ≤ 0.25 | COc1ccc([C@H]2CC[C@H](CN(c3cccc(-c4cnn(C5CC5)c4)c3)C(=O)[C@H]3CC[C@H](C(=O)O)CC3)CC2)cc1Cl [Compound 17.15, trans-4-(((trans-4-(3-Chloro-4-methoxyphenyl)cyclohexyl)methyl)(3-(1-cyclopropyl-1H-pyrazol-4-yl)phenyl)carbamoyl) cyclohexanecarboxylic acid]
16 | ≤ 0.25 | Cn1nc(F)c2cc([C@H]3CC[C@H](CN(c4cccc(-c5cnn(C6CC6)c5)c4)C(=O)[C@H]4CC[C@H](C(=O)O)CC4)CC3)ccc21 [Compound 17.16, trans-4-((3-(1-Cyclopropyl-1H-pyrazol-4-yl)phenyl)((trans-4-(3-fluoro-1-methyl-1H-indazol-5-yl)cyclohexyl)methyl)carbamoyl) cyclohexanecarboxylic acid]
17 | 0.25 to 1 | COc1ccc([C@H]2CC[C@H](CN(c3cccc(-c4cnn(C5CC5)c4)c3)C(=O)[C@H]3CC[C@H](C(=O)O)CC3)CC2)nc1C [Compound 17.18, trans-4-((3-(1-Cyclopropyl-1H-pyrazol-4-yl)phenyl)((trans-4-(5-methoxy-6-methylpyridin-2-yl)cyclohexyl)methyl)carbamoyl) cyclohexanecarboxylic acid]
18 | ≤ 0.25 | COc1ccc([C@H]2CC[C@H](CN(c3cc(-c4cnn(C5CC5)c4)ccn3)C(=O)[C@H]3CC[C@H](C(=O)O)CC3)CC2)cc1C [Compound 17.20, trans-4-((4-(1-Cyclopropyl-1H-pyrazol-4-yl)pyridin-2-yl)((trans-4-(4-methoxy-3-methylphenyl)cyclohexyl)methyl)carbamoyl)cyclohexanecarboxylic acid]
19 | ≥ 1 | COc1ccc([C@H]2CC[C@H](CN(c3cc(-c4cnn(C5CC5)c4)ccn3)C(=O)[C@H]3CC[C@H](C(=O)O)CC3)CC2)nc1C [Compound 17.21, trans-4-((4-(1-Cyclopropyl-1H-pyrazol-4-yl)pyridin-2-yl)((trans-4-(5-methoxy-6-methylpyridin-2-yl)cyclohexyl)methyl)carbamoyl) cyclohexanecarboxylic acid]
20 | ≤ 0.25 | COc1ccc([C@H]2CC[C@H](CN(c3cccc(-c4cnn(C5CC5)c4)c3)C(=O)[C@H]3CC[C@H](C(=O)O)CC3)CC2)cc1C#N [Compound 17.22, trans-4-(((trans-4-(3-Cyano-4-methoxyphenyl)cyclohexyl)methyl)(3-(1-cyclopropyl-1H-pyrazol-4-yl)phenyl)carbamoyl)cyclohexanecarboxylic acid]
21 | ≤ 0.25 | COc1ccc([C@H]2CC[C@H](CN(c3cccc(-c4cnn(C5CC5)c4)c3)C(=O)[C@H]3CC[C@H](CC(=O)O)CC3)CC2)nc1C [Compound 17.24, 2-(trans-4-((3-(1-Cyclopropyl-1H-pyrazol-4-yl)phenyl)((trans-4-(5-methoxy-6-methylpyridin-2-yl)cyclohexyl)methyl)carbamoyl)cyclohexyl)acetic acid]
